From patent US20160250285A1, “NEUROPROTECTIVE PEPTIDES” (priority 2013, published 2016)
pIC50: −log10 of the molar value. Where two headings read alike, the source gives them in different places.

Tests used:
[1] = test system: primary cortical neuronal cultures; conditions: for neuroprotection, peptide present during the 5 minute glutamic acid insult only: FIG. 28; for neuroprotection, 10 minute pre-exposure removed immediately prior to insult: FIG. 29, FIG. 14
[2] = test system: primary rat astrocytes; assay: In vitro ischemia/OGD model, astrocytes; type: cell-based; conditions: 2 μM, 15 min prior to OGD (FIG. 42)
Procedure: A brain endothelial cell line (bEND3) and a neuroblastoma cell line (SH-SY5Y) were also used for some experiments. bEND3 and SH-SY5Y cells were cultured using standard techniques in DMEM plus 5 or 15% foetal calf serum. Rat primary astrocytes were obtained and cultured as described for cortical neurons except DMEM plus 10% foetal calf serum was used instead of Neurobasal/2% B27, and the mitotic inhibitor, cytosine arabinofuraNOside was not used.
The in vitro ischemia model was also used for bEND3 cells, SH-SY5Y cells, and astrocytes. For bEND3 cells anaerobic incubation was extended to 2-3 hours and upon removal from the anaerobic incubator, 60 μl of DMEM/2% FCS was added to wells. […]
Twenty-four hours after insult, neuronal cultures were examined by light microscopy for qualitative assessment of neuronal cell viability. Neuronal viability was quantitatively measured by 3-(4,5,dimethyliazol-2-yl)-5-(3-carboxymethoxy-phenyl)-2-(4-sulfophenyl)-2H-tetrazolium salt (MTS) assay (Promega, Australia). The MTS assay measures the cellular conversion of the tetrazolium salt to a water-soluble brown formazan salt, which is detected spectrophotometrically at 490 nm. MTS absorbance data were converted to reflect proportional cell viability relative to both the untreated and treated controls, with the untreated control taken as 100% viability, and presented as mean±SEM. […]

| fold more potent than TAT-D, based on IC50 values ([1]; glutamic acid model) | pIC50 ([1]; read-out: IC50: Glutamic acid model, Table 4, polyarginine peptides, from dose response graph FIG. 1e) | Compound | neuroprotection when added 15 minutes post-insult ([1]; 15 min post-glutamic acid (FIG. 1d)) | neuroprotection, peptide present during the 5 minute glutamic acid insult only [1] | neuroprotection, 10 minute pre-exposure removed immediately prior to insult [1] | MTS absorbance levels relative to baseline ([1]; normal neurons and following injury) | pIC50 ([1]; read-out: IC50: Glutamic acid model, Table 3, from dose response graph FIG. 1a, peptide 15 min prior to and during 100 μM glutamic acid (5 min), viability 24 h, MTS) | astrocyte cell death after in vitro ischemia [2] | pIC50 [1] | neuroprotective efficacy at the higher concentration ([1]; 5 μM, dose response study) | neuroprotection (neuronal viability) ([1]; peptide 15 min prior to and during glutamic acid exposure, viability 24 h, MTS) |
| --- | --- | --- | --- | --- | --- | --- | --- | --- | --- | --- | --- |
| 17 fold | 6.08 | N=C(N)NCCC[C@H](NC(=O)[C@H](CCCNC(=N)N)NC(=O)[C@H](CCCNC(=N)N)NC(=O)[C@H](CCCNC(=N)N)NC(=O)[C@H](CCCNC(=N)N)NC(=O)[C@H](CCCNC(=N)N)NC(=O)[C@H](CCCNC(=N)N)NC(=O)[C@H](CCCNC(=N)N)NC(=O)[C@@H](N)CCCNC(=N)N)C(=O)O [Peptide R9] | mildly effective | effective | effective | increase MTS absorbance levels above baseline levels | 6.11 | – | – | – | – |
| – | – | H-RRRRRRRRRRRRRRRRRR-OH [Peptide R18] | – | effective | effective | – | – | reduced astrocyte cell death | 6.62 | reduced | showed significant neuroprotection |
